# Results taken from ChEMBL document CHEMBL2440076, “New triarylpyrazoles as broad-spectrum anticancer agents: design, synthesis, and biological evaluation” (Eur J Med Chem, 2013).
# Columns and labels:
# UACC-257 = assay: Growth inhibition of human UACC257 cells after 48 hrs by sulforhodamine B assay; type: functional; details: UACC-257, 48 h; for CC50: read-out: LC50 (the source's name)
# TK-10 = assay: Growth inhibition of human TK10 cells after 48 hrs by sulforhodamine B assay; type: functional; details: TK-10, 48 h; for CC50: read-out: LC50 (the source's name)
# K562 = assay: Growth inhibition of human K562 cells assessed as cell growth at 10 uM after 48 hrs by sulforhodamine B assay; type: functional; details: K562, 48 h, read-out: Activity
# CCRF-CEM [1] = assay: Growth inhibition of human CCRF-CEM cells after 48 hrs by sulforhodamine B assay; type: functional
# T47D = assay: Growth inhibition of human T47D cells assessed as cell growth at 10 uM after 48 hrs by sulforhodamine B assay; type: functional; details: read-out: Activity
# NCI-H226 [2] = assay: Growth inhibition of human NCI-H226 cells after 48 hrs by sulforhodamine B assay; type: functional; details: NCI-H226, 48 h; for CC50: read-out: LC50 (the source's name)
# A498 [3] = assay: Growth inhibition of human A498 cells after 48 hrs by sulforhodamine B assay; type: functional, cell-based; details: A498, 48 h; for CC50: read-out: LC50 (the source's name)
# [4] = Growth inhibition of human HCC2998 cells after 48 hrs by sulforhodamine B assay; type: functional; details: HCC 2998, 48 h; for CC50: read-out: LC50 (the source's name)
# U-251 = assay: Growth inhibition of human U251 cells assessed as cell growth at 10 uM after 48 hrs by sulforhodamine B assay; type: functional; details: U-251, 48 h, read-out: Activity
# MDA-MB-435 = assay: Growth inhibition of human MDA-MB-435 cells after 48 hrs by sulforhodamine B assay; type: functional, cell-based; details: MDA-MB-435, 48 h
# MCF7 = assay: Growth inhibition of human MCF7 cells assessed as cell growth at 10 uM after 48 hrs by sulforhodamine B assay; type: functional; details: MCF7, 48 h, read-out: Activity
# RPMI-8226 = assay: Growth inhibition of human RPMI8226 cells after 48 hrs by sulforhodamine B assay; type: functional, cell-based; details: RPMI-8226, 48 h; for CC50: read-out: LC50 (the source's name)
# A498 [5] = assay: Growth inhibition of human A498 cells assessed as cell growth at 10 uM after 48 hrs by sulforhodamine B assay; type: functional; details: A498, 48 h, read-out: Activity
# KM12 = assay: Growth inhibition of human KM12 cells after 48 hrs by sulforhodamine B assay; type: functional, cell-based; details: KM12, 48 h; for CC50: read-out: LC50 (the source's name)
# DU-145 = assay: Growth inhibition of human DU145 cells assessed as cell growth at 10 uM after 48 hrs by sulforhodamine B assay; type: functional; details: DU-145, 48 h, read-out: Activity
# M14 = assay: Growth inhibition of human M14 cells after 48 hrs by sulforhodamine B assay; type: functional; details: M14, 48 h
# MDA-MB-231 = assay: Growth inhibition of human MDA-MB-231 cells assessed as cell growth at 10 uM after 48 hrs by sulforhodamine B assay; type: functional; details: MDA-MB-231, 48 h, read-out: Activity
# SK-OV-3 = assay: Growth inhibition of human SKOV3 cells assessed as cell growth at 10 uM after 48 hrs by sulforhodamine B assay; type: functional; details: SK-OV-3, 48 h, read-out: Activity
# UACC-62 = assay: Growth inhibition of human UACC62 cells after 48 hrs by sulforhodamine B assay; type: functional; details: UACC-62, 48 h
# CCRF-CEM [6] = assay: Growth inhibition of human CCRF-CEM cells assessed as cell growth at 10 uM after 48 hrs by sulforhodamine B assay; type: functional; details: read-out: Activity
# UO-31 = assay: Growth inhibition of human UO31 cells after 48 hrs by sulforhodamine B assay; type: functional; details: UO-31, 48 h; for CC50: read-out: LC50 (the source's name)
# SNB-75 = assay: Growth inhibition of human SNB75 cells after 48 hrs by sulforhodamine B assay; type: functional; details: SNB-75, 48 h
# SF-268 = assay: Growth inhibition of human SF268 cells after 48 hrs by sulforhodamine B assay; type: functional; details: SF-268, 48 h; for CC50: read-out: LC50 (the source's name)
# HCT-116 = assay: Growth inhibition of human HCT116 cells assessed as cell growth at 10 uM after 48 hrs by sulforhodamine B assay; type: functional; details: HCT-116, 48 h, read-out: Activity
# [7] = Growth inhibition of human NCI-ADR-RES cells assessed as cell growth at 10 uM after 48 hrs by sulforhodamine B assay; type: functional; details: read-out: Activity
# ACHN = assay: Growth inhibition of human ACHN cells assessed as cell growth at 10 uM after 48 hrs by sulforhodamine B assay; type: functional; details: read-out: Activity
# OVCAR-4 = assay: Growth inhibition of human OVCAR4 cells after 48 hrs by sulforhodamine B assay; type: functional; details: OVCAR-4, 48 h
# SN12C = assay: Growth inhibition of human SN12C cells after 48 hrs by sulforhodamine B assay; type: functional; details: for CC50: read-out: LC50 (the source's name)
# SR = assay: Growth inhibition of human SR cells after 48 hrs by sulforhodamine B assay; type: functional; details: for CC50: read-out: LC50 (the source's name)
# NCI-H226 [8] = assay: Growth inhibition of human NCI-H226 cells assessed as cell growth at 10 uM after 48 hrs by sulforhodamine B assay; type: functional; details: NCI-H226, 48 h, read-out: Activity
# COLO 205 = assay: Growth inhibition of human COLO205 cells assessed as cell growth at 10 uM after 48 hrs by sulforhodamine B assay; type: functional; details: COLO 205, 48 h, read-out: Activity
# IGROV-1 = assay: Growth inhibition of human IGROV1 cells assessed as cell growth at 10 uM after 48 hrs by sulforhodamine B assay; type: functional; details: IGROV-1, 48 h, read-out: Activity
# Malme-3M = assay: Growth inhibition of human MALME-3M cells assessed as cell growth at 10 uM after 48 hrs by sulforhodamine B assay; type: functional; details: read-out: Activity
# SW-620 = assay: Growth inhibition of human SW620 cells after 48 hrs by sulforhodamine B assay; type: functional; details: SW-620, 48 h; for CC50: read-out: LC50 (the source's name)
# CAKI-1 = assay: Growth inhibition of human CAKI-1 cells assessed as cell growth at 10 uM after 48 hrs by sulforhodamine B assay; type: functional; details: CAKI-1, 48 h, read-out: Activity
smiles,measurement,setting,value
COc1cc(-c2nn(-c3cccc(NC(=O)c4cccc(C(F)(F)F)c4)c3)cc2-c2ccncc2)ccc1Cl,GI50,UACC-257,27.9 µM
same,TGI,UACC-257,> 50 µM
same,CC50,UACC-257,> 50 µM
same,GI50,TK-10,3.24 µM
same,TGI,TK-10,> 50 µM
same,CC50,TK-10,> 50 µM
same,growth at 10 µM,K562,6.11%
same,GI50,CCRF-CEM [1],1.45 µM
same,LC50,CCRF-CEM [1],> 50 µM
same,TGI,CCRF-CEM [1],> 50 µM
same,growth at 10 µM,T47D,29%
same,GI50,NCI-H226 [2],1.66 µM
same,TGI,NCI-H226 [2],27 µM
same,CC50,NCI-H226 [2],> 50 µM
same,GI50,A498 [3],0.687 µM
same,IC50,A498 [3],0.69 µM
same,TGI,A498 [3],2.78 µM
same,CC50,A498 [3],> 50 µM
same,GI50,[4],2.24 µM
same,TGI,[4],17.6 µM
same,CC50,[4],> 50 µM
same,growth at 10 µM,U-251,13.1%
same,GI50,MDA-MB-435,0.705 µM
same,IC50,MDA-MB-435,0.71 µM
same,TGI,MDA-MB-435,1.77 µM
same,growth at 10 µM,MCF7,3.58%
same,GI50,RPMI-8226,1.57 µM
same,IC50,RPMI-8226,1.57 µM
same,TGI,RPMI-8226,26.6 µM
same,CC50,RPMI-8226,> 50 µM
same,growth at 10 µM,A498 [5],-19%
same,GI50,KM12,1.66 µM
same,TGI,KM12,> 50 µM
same,CC50,KM12,> 50 µM
same,growth at 10 µM,DU-145,2.16%
same,GI50,M14,1.63 µM
same,LC50 (concentration killing 50% of cells),M14,> 50 µM
same,TGI,M14,> 50 µM
same,growth at 10 µM,MDA-MB-231,4.67%
same,growth at 10 µM,SK-OV-3,7.18%
same,GI50,UACC-62,1.94 µM
same,LC50 (50% lethal concentration),UACC-62,> 50 µM
same,TGI,UACC-62,> 50 µM
same,growth at 10 µM,CCRF-CEM [6],3.1%
same,GI50,UO-31,0.968 µM
same,TGI,UO-31,> 50 µM
same,CC50,UO-31,> 50 µM
same,GI50,SNB-75,1.13 µM
same,"LC50 (lethal concentration, 50% net cell kill)",SNB-75,> 50 µM
same,GI50,SF-268,2.13 µM
same,TGI,SF-268,> 50 µM
same,CC50,SF-268,> 50 µM
same,growth at 10 µM,HCT-116,8.15%
same,growth at 10 µM,[7],2.75%
same,growth at 10 µM,ACHN,31.6%
same,GI50,OVCAR-4,2.28 µM
same,LC50 (concentration killing 50% of cells),OVCAR-4,> 50 µM
same,TGI,OVCAR-4,> 50 µM
same,GI50,SN12C,3.31 µM
same,TGI,SN12C,> 50 µM
same,CC50,SN12C,> 50 µM
same,GI50,SR,0.838 µM
same,TGI,SR,4.59 µM
same,CC50,SR,> 50 µM
same,growth at 10 µM,NCI-H226 [8],36.2%
same,growth at 10 µM,COLO 205,7.11%
same,growth at 10 µM,IGROV-1,34%
same,growth at 10 µM,Malme-3M,10.1%
same,GI50,SW-620,2.31 µM
same,TGI,SW-620,> 50 µM
same,CC50,SW-620,> 50 µM
same,growth at 10 µM,CAKI-1,44.7%
O=C(Nc1cccc(-n2cc(-c3ccncc3)c(-c3ccc(Cl)c(O)c3)n2)c1)Nc1ccc(Cl)c(C(F)(F)F)c1,GI50,UACC-257,0.768 µM
same,TGI,UACC-257,2.1 µM
same,CC50,UACC-257,8.39 µM
same,GI50,TK-10,1.5 µM
same,TGI,TK-10,11.9 µM
same,CC50,TK-10,> 32.5 µM
same,growth at 10 µM,K562,-20.8%
same,GI50,CCRF-CEM [1],0.719 µM
same,LC50,CCRF-CEM [1],> 32.5 µM
same,TGI,CCRF-CEM [1],2.7 µM
same,growth at 10 µM,T47D,-7.12%
same,GI50,NCI-H226 [2],1.35 µM
same,TGI,NCI-H226 [2],> 32.5 µM
same,CC50,NCI-H226 [2],> 32.5 µM
same,GI50,A498 [3],1.4 µM
same,IC50,A498 [3],1.4 µM
same,TGI,A498 [3],6.9 µM
same,CC50,A498 [3],> 32.5 µM
same,GI50,[4],1.06 µM
same,TGI,[4],4.12 µM
same,CC50,[4],20.7 µM
same,growth at 10 µM,U-251,-70.4%
same,GI50,MDA-MB-435,0.66 µM
same,IC50,MDA-MB-435,0.66 µM
same,TGI,MDA-MB-435,1.77 µM
same,CC50,MDA-MB-435; read-out: LC50 (the source's name),21.5 µM
same,growth at 10 µM,MCF7,-16.6%
same,GI50,RPMI-8226,0.58 µM
same,IC50,RPMI-8226,0.58 µM
same,TGI,RPMI-8226,2 µM
same,CC50,RPMI-8226,> 32.5 µM
same,growth at 10 µM,A498 [5],11.2%
same,GI50,KM12,1 µM
same,TGI,KM12,3.51 µM
same,CC50,KM12,17.4 µM
same,growth at 10 µM,DU-145,-17%
same,GI50,M14,0.886 µM
same,LC50 (concentration killing 50% of cells),M14,> 32.5 µM
same,TGI,M14,2.77 µM
same,growth at 10 µM,MDA-MB-231,-36.4%
same,growth at 10 µM,SK-OV-3,7.47%
same,GI50,UACC-62,0.627 µM
same,LC50 (50% lethal concentration),UACC-62,3.16 µM
same,TGI,UACC-62,1.45 µM
same,growth at 10 µM,CCRF-CEM [6],-13.8%
same,GI50,UO-31,0.777 µM
same,TGI,UO-31,3.01 µM
same,CC50,UO-31,> 32.5 µM
same,GI50,SNB-75,0.678 µM
same,"LC50 (lethal concentration, 50% net cell kill)",SNB-75,> 32.5 µM
same,TGI,SNB-75,3.2 µM
same,GI50,SF-268,1.06 µM
same,TGI,SF-268,6.98 µM
same,CC50,SF-268,> 32.5 µM
same,growth at 10 µM,HCT-116,-51%
same,growth at 10 µM,[7],-16.9%
same,growth at 10 µM,ACHN,6.62%
same,GI50,OVCAR-4,1.2 µM
same,LC50 (concentration killing 50% of cells),OVCAR-4,> 32.5 µM
same,TGI,OVCAR-4,> 32.5 µM
same,GI50,SN12C,1.12 µM
same,TGI,SN12C,17.1 µM
same,CC50,SN12C,> 32.5 µM
same,GI50,SR,0.715 µM
same,TGI,SR,2.52 µM
same,CC50,SR,> 32.5 µM
same,growth at 10 µM,NCI-H226 [8],3.43%
same,growth at 10 µM,COLO 205,-60.2%
same,growth at 10 µM,IGROV-1,10.4%
same,growth at 10 µM,Malme-3M,-16.6%
same,GI50,SW-620,1.15 µM
same,TGI,SW-620,4.16 µM
same,CC50,SW-620,> 32.5 µM
same,growth at 10 µM,CAKI-1,17.3%
